# Measurements reported in publication PMC12277872, “Design, Synthesis, In Vitro, and In Silico Studies of 5‐(Diethylamino)‐2‐Formylphenyl Naphthalene‐2‐Sulfonate Based Thiosemicarbazones as Potent Anti‐Alzheimer Agents” (Archiv Der Pharmazie, 2025).
# Experiments:
# [1] = target: T1, AChE from Electrophorus electricus (electric eel) (Electrophorus electricus, UniProt O42275); assay: biochemical; conditions: for IC50: AChI substrate, DTNB, 412 nm, Tris/HCl pH 8.0; for Ki: read-out: K i (nM) AChE
# T1 construct: purchased Sigma Aldrich C3389
# T1 sequence (O42275 24-633): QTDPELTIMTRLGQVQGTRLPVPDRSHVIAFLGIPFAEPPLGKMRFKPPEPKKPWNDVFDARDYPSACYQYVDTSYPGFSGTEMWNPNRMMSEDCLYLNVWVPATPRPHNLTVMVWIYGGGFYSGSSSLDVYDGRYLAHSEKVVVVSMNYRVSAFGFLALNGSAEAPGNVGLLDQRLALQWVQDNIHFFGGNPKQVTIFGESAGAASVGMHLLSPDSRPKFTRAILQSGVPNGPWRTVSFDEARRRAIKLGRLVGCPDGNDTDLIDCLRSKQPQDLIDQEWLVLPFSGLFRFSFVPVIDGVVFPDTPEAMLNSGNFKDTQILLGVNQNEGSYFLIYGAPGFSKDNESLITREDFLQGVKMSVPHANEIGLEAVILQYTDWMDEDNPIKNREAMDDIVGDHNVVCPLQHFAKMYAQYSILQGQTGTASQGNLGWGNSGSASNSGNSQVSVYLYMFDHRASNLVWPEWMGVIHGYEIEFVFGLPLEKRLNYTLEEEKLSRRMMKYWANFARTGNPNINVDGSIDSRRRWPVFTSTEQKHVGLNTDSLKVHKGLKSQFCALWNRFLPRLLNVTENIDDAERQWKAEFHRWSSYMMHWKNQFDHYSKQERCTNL
# Experimental: Both […] (AChI) and butyrylcholine iodide (BChI) were used as substrates for the enzymatic hydrolysis reactions, with 5,5′‐dithiobis(2‐nitrobenzoic acid) (DTNB) serving as a common reagent for detecting the activities of AChE and BChE. The assay was conducted: 1 mL of 1.0 M Tris/HCl buffer (pH 8.0) was mixed with 10 μL of the sample solution in deionized water. To this mixture, 50 μL of AChE or BChE enzyme solution was added, and the reaction was incubated at room temperature for 10 min. After incubation, 50 μL of DTNB (0.5 mM) was introduced, followed by the addition of 50 μL of either AChI or BChI (10 mM), initiating the enzymatic reaction. […] This color change is due to the reaction of DTNB with thiocholine released during the hydrolysis of AChI or BChI. For every inhibitor that was utilized, IC50 and K i values were determined. In this study, C7512‐ BChE from equine serum and C3389‐ AChE from Electrophorus electricus (electric eel) were purchased from Sigma Aldrich.
# [2] = target: T2, hMAO‐A (Homo sapiens, UniProt P21397); assay: In vitro fluorometric MAO-A inhibition assay (tyramine substrate, horseradish peroxidase coupling); assay type: biochemical
# T2 construct: purchased Sigma Aldrich M7316
# T2 sequence (P21397 1-527): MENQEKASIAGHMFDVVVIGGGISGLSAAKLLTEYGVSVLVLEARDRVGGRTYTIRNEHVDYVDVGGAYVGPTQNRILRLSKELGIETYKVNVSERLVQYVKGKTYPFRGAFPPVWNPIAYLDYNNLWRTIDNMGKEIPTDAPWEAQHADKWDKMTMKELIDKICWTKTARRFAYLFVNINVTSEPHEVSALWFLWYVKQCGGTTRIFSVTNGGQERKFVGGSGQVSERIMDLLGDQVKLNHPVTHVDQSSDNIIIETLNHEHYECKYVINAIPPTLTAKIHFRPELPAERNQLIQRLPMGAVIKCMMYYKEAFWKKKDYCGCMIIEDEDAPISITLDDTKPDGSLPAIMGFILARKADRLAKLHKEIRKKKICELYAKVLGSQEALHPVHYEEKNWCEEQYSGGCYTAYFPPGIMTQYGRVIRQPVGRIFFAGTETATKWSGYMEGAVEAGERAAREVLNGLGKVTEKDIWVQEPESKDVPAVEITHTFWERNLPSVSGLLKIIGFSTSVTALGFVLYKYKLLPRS
# Experimental: (§1) The in vitro fluorometric technique was used to assess each newly generated substance's inhibitory activity against hMAO‐A and hMAO‐B. In a horseradish peroxidase coupling reaction, the oxired reagent (10‐acetyl‐3,7‐dihydroxyphenoxazine) detects H2O2, a result of the oxidative deamination of tyramine, which is utilized as an MAO substrate. The test was carried out in two steps. First, each compound's concentrations of 10^–3 and 10^–4 M were investigated. […] These parameters of this study were made as in previous studies. We purchased these two enzymes from Sigma Aldrich (M7316‐Monoamine Oxidase A human and M7441‐ […]).
# [3] = target: T3, hMAO‐B (Homo sapiens, UniProt P27338); assay: In vitro fluorometric MAO-B inhibition assay (tyramine substrate, horseradish peroxidase coupling); assay type: biochemical
# T3 construct: purchased Sigma Aldrich M7441
# T3 sequence (P27338 1-520): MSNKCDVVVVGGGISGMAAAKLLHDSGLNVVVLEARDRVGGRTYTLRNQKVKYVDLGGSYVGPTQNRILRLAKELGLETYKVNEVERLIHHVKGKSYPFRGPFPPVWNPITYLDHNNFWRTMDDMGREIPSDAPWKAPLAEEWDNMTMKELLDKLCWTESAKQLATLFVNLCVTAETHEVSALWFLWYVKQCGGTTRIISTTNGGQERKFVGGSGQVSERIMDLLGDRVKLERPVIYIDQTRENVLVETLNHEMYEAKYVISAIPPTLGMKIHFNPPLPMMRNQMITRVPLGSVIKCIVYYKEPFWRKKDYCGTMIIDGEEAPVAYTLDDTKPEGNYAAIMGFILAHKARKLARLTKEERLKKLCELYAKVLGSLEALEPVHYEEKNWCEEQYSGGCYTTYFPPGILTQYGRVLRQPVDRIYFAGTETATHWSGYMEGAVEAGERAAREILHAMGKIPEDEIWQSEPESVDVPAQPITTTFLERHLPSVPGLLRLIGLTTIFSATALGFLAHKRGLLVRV
# Experimental: as §1
# [4] = target: T4, BChE from equine serum (Equus caballus, UniProt P81908); assay: biochemical; conditions: for IC50: BChI substrate, DTNB, 412 nm, Tris/HCl pH 8.0; for Ki: read-out: K i (nM) BChE
# T4 construct: C7512‐ BChE from equine serum; purchased Sigma Aldrich C7512; host or cells: equine serum
# T4 sequence (P81908 whole entry): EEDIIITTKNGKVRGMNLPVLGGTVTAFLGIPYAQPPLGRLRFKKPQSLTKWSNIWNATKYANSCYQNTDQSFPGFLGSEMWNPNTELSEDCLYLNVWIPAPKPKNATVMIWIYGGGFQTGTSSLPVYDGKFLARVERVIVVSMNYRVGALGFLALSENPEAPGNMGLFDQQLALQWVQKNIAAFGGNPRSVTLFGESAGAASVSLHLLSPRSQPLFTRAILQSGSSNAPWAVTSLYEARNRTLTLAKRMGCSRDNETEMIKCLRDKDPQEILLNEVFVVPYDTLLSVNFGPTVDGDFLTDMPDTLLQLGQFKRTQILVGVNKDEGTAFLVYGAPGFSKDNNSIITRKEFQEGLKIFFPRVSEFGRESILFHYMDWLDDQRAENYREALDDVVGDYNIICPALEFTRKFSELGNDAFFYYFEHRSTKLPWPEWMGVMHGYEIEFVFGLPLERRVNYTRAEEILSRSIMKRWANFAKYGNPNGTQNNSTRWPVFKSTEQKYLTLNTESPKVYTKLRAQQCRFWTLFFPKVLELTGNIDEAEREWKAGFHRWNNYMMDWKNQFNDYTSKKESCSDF
# Experimental: Both […] (AChI) and butyrylcholine iodide (BChI) were used as substrates for the enzymatic hydrolysis reactions, with 5,5′‐dithiobis(2‐nitrobenzoic acid) (DTNB) serving as a common reagent for detecting the activities of AChE and BChE. The assay was conducted: 1 mL of 1.0 M Tris/HCl buffer (pH 8.0) was mixed with 10 μL of the sample solution in deionized water. To this mixture, 50 μL of AChE or BChE enzyme solution was added, and the reaction was incubated at room temperature for 10 min. After incubation, 50 μL of DTNB (0.5 mM) was introduced, followed by the addition of 50 μL of either AChI or BChI (10 mM), initiating the enzymatic reaction. The hydrolysis of the substrates was monitored spectrophotometrically by measuring the absorbance at 412 nm, corresponding to the formation of the yellow‐colored 5‐thio‐2‐nitrobenzoate anion. This color change is due to the reaction of DTNB with thiocholine released during the hydrolysis of AChI or BChI. For every inhibitor that was utilized, IC50 and K i values were determined. In this study, C7512‐ BChE from equine serum and C3389‐ AChE from Electrophorus electricus (electric eel) were purchased from Sigma Aldrich.
Compound,IC50 [1] [nM],Ki [1] [nM],IC50 [2] [nM],IC50 [3] [nM],IC50 [4] [nM],Ki [4] [nM]
"CCN(CC)c1ccc(/C=N/NC(=S)Nc2cccc(Cl)c2Cl)c(OS(=O)(=O)c2ccc3ccccc3c2)c1 [Compound 5a, (E)‐2‐({2‐[(2,3‐Dichlorophenyl)carbamothioyl]hydrazono}methyl)‐5‐(diethylamino)phenyl naphthalene‐2‐sulfonate]",14.9 ± 1.54,11.4 ± 3.06,104 ± 4.58,391 ± 9.04,125 ± 9.13,101 ± 22.4
"CCN(CC)c1ccc(/C=N/NC(=S)Nc2ccc(Br)cc2)c(OS(=O)(=O)c2ccc3ccccc3c2)c1 [Compound 5b, (E)‐2‐({2‐[(4‐Bromophenyl)carbamothioyl]hydrazono}methyl)‐5‐(diethylamino)phenyl naphthalene‐2‐sulfonate]",33.8 ± 3.41,26.6 ± 3.34,132 ± 7.01,410 ± 7.47,202 ± 5.66,191 ± 15.7
"CCN(CC)c1ccc(/C=N/NC(=S)Nc2ccccc2)c(OS(=O)(=O)c2ccc3ccccc3c2)c1 [Compound 5c, (E)‐5‐(Diethylamino)‐2‐{[2‐(phenylcarbamothioyl)hydrazono]methyl}phenyl naphthalene‐2‐sulfonate]",38.4 ± 5.03,25.4 ± 5.32,189 ± 6.46,296 ± 6.01,218 ± 8.41,183 ± 15
"CCN(CC)c1ccc(/C=N/NC(=S)Nc2ccc(OC)cc2)c(OS(=O)(=O)c2ccc3ccccc3c2)c1 [Compound 5d, (E)‐5‐(Diethylamino)‐2‐({2‐[(4‐methoxyphenyl)carbamothioyl]hydrazono}methyl)phenyl naphthalene‐2‐sulfonate]",39.4 ± 2.87,32.2 ± 5.93,171 ± 10.4,406 ± 8.24,253 ± 10.5,235 ± 15
"CCN(CC)c1ccc(/C=N/NC(=S)Nc2cccc(Cl)c2)c(OS(=O)(=O)c2ccc3ccccc3c2)c1 [Compound 5e, (E)‐2‐({2‐[(3‐chlorophenyl)carbamothioyl]hydrazono}methyl)‐5‐(diethylamino)phenyl naphthalene‐2‐sulfonate]",31 ± 4.16,25.4 ± 3.32,117 ± 7.33,> 1000,208 ± 7.53,195 ± 11.5
"CCN(CC)c1ccc(/C=N/NC(=S)NCC(C)C)c(OS(=O)(=O)c2ccc3ccccc3c2)c1 [Compound 5f, (E)‐5‐(Diethylamino)‐2‐{[2‐(isobutylcarbamothioyl)hydrazono]methyl}phenyl naphthalene‐2‐sulfonate]",49.5 ± 5.21,38.8 ± 6.18,134 ± 8.04,388 ± 5.37,254 ± 6.31,240 ± 18.6
CCN(CC)c1ccc(C=NNC(=S)NCCCSC)c(OS(=O)(=O)c2ccc3ccccc3c2)c1 [Compound 5g],80.4 ± 7.62,72.4 ± 10.1,188 ± 5.36,399 ± 7.93,287 ± 8.57,258 ± 16.1
"CCN(CC)c1ccc(/C=N/NC(=S)Nc2ccccc2C(F)(F)F)c(OS(=O)(=O)c2ccc3ccccc3c2)c1 [Compound 5h, (E)‐5‐(Diethylamino)‐2‐[(2‐{[2‐(trifluoromethyl)phenyl]carbamothioyl}hydrazineylidene)methyl]phenyl naphthalene‐2‐sulfonate]",16.8 ± 1.35,14.6 ± 3.36,100 ± 4.57,249 ± 9.1,145 ± 8.96,136 ± 9.17
"CCN(CC)c1ccc(/C=N/NC(=S)Nc2ccc(Cl)cc2)c(OS(=O)(=O)c2ccc3ccccc3c2)c1 [Compound 5i, (E)‐2‐({2‐[(4‐Chlorophenyl)carbamothioyl]hydrazono}methyl)‐5‐(diethylamino)phenyl naphthalene‐2‐sulfonate]",24.8 ± 2.41,21 ± 4.12,121 ± 3.15,285 ± 4.02,200 ± 9.41,190 ± 13.6
"CCN(CC)c1ccc(/C=N/NC(=S)Nc2c(C)cccc2C)c(OS(=O)(=O)c2ccc3ccccc3c2)c1 [Compound 5j, (E)‐5‐(Diethylamino)‐2‐({2‐[(2,6‐dimethylphenyl)carbamothioyl]hydrazono}methyl)phenyl naphthalene‐2‐sulfonate]",40.6 ± 2.77,36.5 ± 5.23,137 ± 6.21,395 ± 8.35,265 ± 7.9,228 ± 12.4
"CCN(CC)c1ccc(/C=N/NC(=S)Nc2cccc(OC)c2)c(OS(=O)(=O)c2ccc3ccccc3c2)c1 [Compound 5k, (E)‐5‐(Diethylamino)‐2‐({2‐[(3‐methoxyphenyl)carbamothioyl]hydrazono}methyl)phenyl naphthalene‐2‐sulfonate]",116 ± 8.42,95.8 ± 9.54,145 ± 8.03,> 1000,253 ± 9.15,205 ± 10.2
"CCN(CC)c1ccc(/C=N/NC(=S)Nc2ccc(F)cc2)c(OS(=O)(=O)c2ccc3ccccc3c2)c1 [Compound 5l, (E)‐5‐(Diethylamino)‐2‐({2‐[(4‐fluorophenyl)carbamothioyl]hydrazono}methyl)phenyl naphthalene‐2‐sulfonate]",29.5 ± 2.68,27.4 ± 3.45,112 ± 2.78,277 ± 6.33,200 ± 6.88,182 ± 9.05
"CCN(CC)c1ccc(/C=N/NC(=S)NC)c(OS(=O)(=O)c2ccc3ccccc3c2)c1 [Compound 5m, (E)‐5‐(Diethylamino)‐2‐{[2‐(methylcarbamothioyl)hydrazono]methyl}phenyl naphthalene‐2‐sulfonate]",38.5 ± 3.21,30.2 ± 5.02,132 ± 4.96,369 ± 11.2,214 ± 7.13,193 ± 11.6
"CCN(CC)c1ccc(/C=N/NC(N)=S)c(OS(=O)(=O)c2ccc3ccccc3c2)c1 [Compound 5n, (E)‐2‐[(2‐Carbamothioylhydrazono)methyl]‐5‐(diethylamino)phenyl naphthalene‐2‐sulfonate]",47.7 ± 5.67,42.4 ± 4.1,137 ± 6.55,396 ± 8.09,308 ± 9.98,270 ± 13.5
"CCN(CC)c1ccc(/C=N/NC(=S)Nc2cccc([N+](=O)[O-])c2)c(OS(=O)(=O)c2ccc3ccccc3c2)c1 [Compound 5o, (E)‐5‐(Diethylamino)‐2‐({2‐[(3‐nitrophenyl)carbamothioyl]hydrazono}methyl)phenyl naphthalene‐2‐sulfonate]",18.9 ± 1.33,14.2 ± 2.32,123 ± 7.01,267 ± 6.35,192 ± 6.36,160 ± 9.01
